From patent US11958843B1, “2-(benzo[d]oxazol-2-yl)-n′-(2-(5-phenyl-1,3,4-oxadiazol-2-ylthio)acetoxy)acetimidamide as an antimicrobial compound” (priority 2023, dated 2024)

Test system: Bacillus cereus, Staphylococcus aureus, Pseudomonas aeruginosa, Escherichia coli, Aspergillus flavus, Chrysosporium keratinophilum
Experiment: Agar plate disc-diffusion antimicrobial activity
Format: cell-based
Conditions: disc wetted with 10 μL of 10 mg/mL in DMSO; 37° C., 48 h (72 h for fungi); gram positive and gram-negative bacteria and fungi; result in words only
Protocol: The agar plate disc-diffusion method was applied. Sterilized filter papers (6 mm in diameter) were wetted with 10 μL of a solution of 2-(benzo[d]oxazol-2-yl)-N′-(2-(5-phenyl-1,3,4-oxadiazol-2-ylthio)acetoxy)acetimidamide (3) to be tested, containing 10 mg/mL in DMSO, and the discs were allowed to air dry. The discs were then placed onto the surface of agar plates (nutrient agar for bacteria and Sabouraud's dextrose agar for fungi) seeded with the test organism. Each plate contained 15 mL of the agar medium, previously seeded with 0.2 mL of the broth culture of each organism pregrown for 18 hours. The plates were incubated at 37° C. for 48 h, and 72 h for fungi. The inhibition zones were measured in mm. Discs impregnated with DMSO were used as a control, and its inhibition zone was subtracted from the tested compound actual inhibition zone. […] The antibacterial activity was screened against gram positive bacteria namely Bacillus cereus and Staphylococcus aureus and gram-negative bacterial strains namely Pseudomonas aeruginosa and Escherichia coli, while the antifungal activity was screened against Aspergillus flavus and Chrysosporium keratinophilum.

N/C(Cc1nc2ccccc2o1)=N\OC(=O)CSc1nnc(-c2ccccc2)o1 [compound 3, 2-(benzo[d]oxazol-2-yl)-N′-(2-(5-phenyl-1,3,4-oxadiazol-2-ylthio)acetoxy)acetimidamide]
antimicrobial activities (inhibition zones): high antimicrobial activities
